# Measurements as given in patent publication US12441768B2, “Compositions and methods for treating endometriosis” (EndoMet Biosciences, Inc., priority 2018, dated 2025).
# *1 amine or outer side, *2 acyl side, *3 side chain or, on linkers, in order; H or OH if unused. Where a SMILES comes first, the peptide text is derived from it. [ ]: non-standard residue; d: D form. ξ: configuration not given here. X4 = CC[C@@H](C)C(N[*:1])C(=O)[*:2]; ξW = NC(Cc1c[nH]c2ccccc12)C(=O)O; ξL = CC(C)CC(N)C(=O)O; ξC = NC(CS)C(=O)O; βAla = NCCC(=O)O
# Target: T1, β-catenin (Homo sapiens, UniProt P35222)
# T1 sequence (P35222 1-781): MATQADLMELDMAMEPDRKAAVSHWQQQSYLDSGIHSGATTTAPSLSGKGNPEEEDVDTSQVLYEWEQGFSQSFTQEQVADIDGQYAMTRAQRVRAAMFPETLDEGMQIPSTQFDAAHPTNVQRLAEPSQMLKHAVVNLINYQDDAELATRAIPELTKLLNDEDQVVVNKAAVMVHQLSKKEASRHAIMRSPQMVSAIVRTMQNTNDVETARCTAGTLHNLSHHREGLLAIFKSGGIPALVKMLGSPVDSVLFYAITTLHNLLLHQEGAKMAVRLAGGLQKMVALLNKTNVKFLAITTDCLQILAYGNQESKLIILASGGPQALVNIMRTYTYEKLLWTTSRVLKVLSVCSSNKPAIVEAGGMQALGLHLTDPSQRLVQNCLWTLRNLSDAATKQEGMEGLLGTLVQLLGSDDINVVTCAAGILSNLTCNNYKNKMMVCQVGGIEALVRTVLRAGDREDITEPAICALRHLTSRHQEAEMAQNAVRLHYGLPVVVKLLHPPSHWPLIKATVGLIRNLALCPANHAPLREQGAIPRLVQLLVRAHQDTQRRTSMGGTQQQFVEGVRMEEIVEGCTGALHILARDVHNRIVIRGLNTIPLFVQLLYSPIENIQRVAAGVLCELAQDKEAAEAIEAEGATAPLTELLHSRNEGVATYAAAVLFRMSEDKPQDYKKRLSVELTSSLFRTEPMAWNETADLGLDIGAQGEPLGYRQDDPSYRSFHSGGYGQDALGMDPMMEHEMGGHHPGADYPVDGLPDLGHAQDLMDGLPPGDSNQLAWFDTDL
# Assay: KD50 measurement using competitive fluorescence polarization (FP) with labelled TCF4
# Type: binding
# Conditions: fluorescence polarization, β-catenin; for Kd: read-out: β-Cat FP KD
# Source text: Fluorescence polarization (FP) is another method used to analyze protein-ligand interactions. This methodology measures the change in fluorescence light emitted by a labelled compound free vs. conjugated to another compound in solution. Upon binding of the fluorescent molecule to a complex, polarization increases because of limited rotation of the fluorescent tracer. Competitive FP is often utilized in drug screens as it is formatted for high throughput screens in a plate format. This immunoassay is performed by introducing a non-conjugated drug to compete for binding to the labelled competitor-ligand complex, leading to a reduction in polarization. TCF4 protein is utilized for the competitive assay as (1) this protein influences the full activation of the Wnt pathway and (2) shares homology with the β-catenin inhibitors. Exemplary methodology is described in Example 13. Data were analyzed and plotted in Microsoft Excel (Microsoft, Redmond, WA).
# 5 nM of labelled TCF4 protein was added to solution of 100 nM of β-catenin and incubated at room temperature in 96-well plates (Greiner 96 Flat transparent plates, Millipore Sigma, Carlsbad CA). Varying concentrations of β-catenin inhibitor candidate (SEQ ID NO: 404) were then added in a series of serial dilutions from 10 nM to 30 uM of inhibitor in different wells of the plate. The fluorescence polarization was read by Infinite M1000 (Tecan, Baldwin Park CA) at excitation wavelength of 470 nm and measured at emission wavelength of 520 nm. […] The experiments were performed three times and data were analyzed and plotted in Microsoft Excel (Microsoft, Redmond, WA).
β-Cat FP Hill slope,Kd [µM],Compound
0.2,> 30,"CC[C@H](C)[C@@H]1NC(=O)[C@H](CC(C)C)NC(=O)[C@H](Cc2ccccc2)NC(=O)[C@H](Cc2c[nH]c3ccccc23)NC(=O)[C@@H](N)CCCCNC(=O)CC[C@@H](C(=O)N[C@@H](Cc2c[nH]c3ccccc23)C(=O)NCC(=O)O)NC(=O)[C@H](CO)NC1=O [compound 228] (HELM PEPTIDE1{K.W.F.L.I.S.E.W.G}$PEPTIDE1,PEPTIDE1,1:R3-7:R3$$$V2.0)"
0.43,1 to 10,"CC[C@H](C)[C@@H]1NC(=O)[C@H](CC(C)C)NC(=O)[C@H](Cc2ccccc2)NC(=O)[C@H](Cc2c[nH]c3ccccc23)NC(=O)[C@@H](N)CCCCNC(=O)CC[C@@H](C(=O)N[C@@H](Cc2ccccc2)C(=O)N[C@@H](Cc2c[nH]c3ccccc23)C(=O)NCC(=O)O)NC1=O [compound 229] (HELM PEPTIDE1{K.W.F.L.I.E.F.W.G}$PEPTIDE1,PEPTIDE1,1:R3-6:R3$$$V2.0)"
0.77,< 0.4,"CC[C@H](C)[C@@H]1NC(=O)[C@H](CC(C)C)NC(=O)[C@@H](NC(=O)[C@H](Cc2c[nH]c3ccccc23)NC(=O)[C@@H](N)CCSC)CCCCNC(=O)CC[C@@H](C(=O)N[C@@H](Cc2ccccc2)C(=O)N[C@@H](Cc2c[nH]c3ccccc23)C(=O)NCC(=O)O)NC1=O [compound 230] (HELM PEPTIDE1{M.W.K.L.I.E.F.W.G}$PEPTIDE1,PEPTIDE1,3:R3-6:R3$$$V2.0)"
0.7,1 to 10,"CC(C)C[C@@H]1NC(=O)[C@H](Cc2ccccc2)NC(=O)[C@H](Cc2c[nH]c3ccccc23)NC(=O)[C@@H](N)CCCCNC(=O)CC[C@@H](C(=O)N[C@@H](CO)C(=O)N[C@@H](Cc2ccccc2)C(=O)N[C@@H](Cc2c[nH]c3ccccc23)C(=O)NCC(=O)O)NC1=O [compound 231] (HELM PEPTIDE1{K.W.F.L.E.S.F.W.G}$PEPTIDE1,PEPTIDE1,1:R3-5:R3$$$V2.0)"
2.73,1 to 10,"CC[C@H](C)[C@H](NC(=O)[C@H](CC(C)C)NC(=O)[C@@H]1CCC(=O)NCCCC[C@H](N)C(=O)N[C@@H](Cc2c[nH]c3ccccc23)C(=O)N1)C(=O)N[C@@H](CO)C(=O)N[C@@H](Cc1ccccc1)C(=O)N[C@@H](Cc1c[nH]c2ccccc12)C(=O)NCC(=O)O [compound 232] (HELM PEPTIDE1{K.W.E.L.I.S.F.W.G}$PEPTIDE1,PEPTIDE1,1:R3-3:R3$$$V2.0)"
0.74,< 0.4,"CC[C@H](C)[C@@H]1NC(=O)[C@H](CC(C)C)NC(=O)[C@H](Cc2ccccc2)NC(=O)[C@H](Cc2c[nH]c3ccccc23)NC(=O)[C@@H](N)CC(=O)NCCCC[C@@H](C(=O)O)NC(=O)[C@H](Cc2c[nH]c3ccccc23)NC(=O)[C@H](C)NC(=O)[C@H](CS)NC1=O [compound 233] (HELM PEPTIDE1{D.W.F.L.I.C.A.W.K}$PEPTIDE1,PEPTIDE1,1:R3-9:R3$$$V2.0)"
–,> 30,CC[C@@H](C)C(NC(=O)C(CC(C)C)NC(=O)[C@H](Cc1ccccc1)NC(=O)C(Cc1c[nH]c2ccccc12)NC(=O)[C@H](CCCCN)NC(C)=O)C(=O)NC(CS)C(=O)N[C@@H](C)C(=O)NC(Cc1c[nH]c2ccccc12)C(=O)NCCC(=O)O (stereo partly shown) [compound 235] (Ac-K[ξW]F[ξL][X4][ξC]A[ξW][βAla]-OH)
0.72,> 30,CC[C@H](C)[C@H](NC(=O)[C@@H](N)CC(C)C)C(=O)N[C@@H](CO)C(=O)N[C@@H](Cc1ccccc1)C(=O)N[C@@H](Cc1c[nH]c2ccccc12)C(=O)NCC(=O)O [compound 237] (H-LISFWG-OH)
0.7,10 to 30,CC[C@H](C)[C@H](NC(=O)[C@H](CC(C)C)NC(C)=O)C(=O)N[C@@H](CO)C(=O)N[C@@H](Cc1ccccc1)C(=O)N[C@@H](Cc1c[nH]c2ccccc12)C(=O)NCC(=O)O [compound 238] (Ac-LISFWG-OH)
0.7,1 to 10,CC[C@H](C)[C@H](NC(=O)[C@H](CC(C)C)NC(=O)[C@H](Cc1ccccc1)NC(C)=O)C(=O)N[C@@H](CO)C(=O)N[C@@H](Cc1ccccc1)C(=O)N[C@@H](Cc1c[nH]c2ccccc12)C(=O)NCC(=O)O [compound 239] (Ac-FLISFWG-OH)
1.44,< 0.4,CC[C@H](C)[C@H](NC(=O)[C@H](CC(C)C)NC(=O)[C@@H](NC(=O)[C@H](Cc1c[nH]c2ccccc12)NC(=O)[C@H](CCSC)NC(C)=O)[C@@H](C)CC)C(=O)N[C@@H](CO)C(=O)N[C@@H](Cc1ccccc1)C(=O)N[C@@H](Cc1c[nH]c2ccccc12)C(=O)NCCCC(=O)O [compound 240] (HELM PEPTIDE1{[ac].M.W.I.L.I.S.F.W.[O=C(O)CCCN[*:1]]}$$$$V2.0)
0.7,1 to 10,CC[C@H](C)[C@H](NC(=O)[C@H](CC(C)C)NC(=O)[C@@H](N)Cc1ccccc1)C(=O)N[C@@H](CO)C(=O)N[C@@H](Cc1ccccc1)C(=O)N[C@@H](Cc1c[nH]c2ccccc12)C(=O)NCC(=O)O [compound 241] (H-FLISFWG-OH)
0.7,10 to 30,"CC[C@@H]1NC(=O)[C@H]([C@@H](C)CC)NC(=O)[C@H](CC(C)C)NC(=O)[C@H](Cc2ccccc2)NC(=O)[C@H](Cc2c[nH]c3ccccc23)NC(=O)[C@@H](NC(C)=O)CCCCNC(=O)C[C@@H](C(=O)O)NC(=O)[C@H](Cc2c[nH]c3ccccc23)NC(=O)[C@H](C)NC1=O [compound 243] (HELM PEPTIDE1{[ac].K.W.F.L.I.[Abu].A.W.D}$PEPTIDE1,PEPTIDE1,2:R3-10:R3$$$V2.0)"
1.9,0.4 to 1,"CC[C@@H]1NC(=O)[C@H]([C@@H](C)CC)NC(=O)[C@H](CC(C)C)NC(=O)[C@H](Cc2ccccc2)NC(=O)[C@H](Cc2c[nH]c3ccccc23)NC(=O)[C@@H](N)CCCCNC(=O)C[C@@H](C(=O)O)NC(=O)[C@H](Cc2c[nH]c3ccccc23)NC(=O)[C@H](C)NC1=O [compound 244] (HELM PEPTIDE1{K.W.F.L.I.[Abu].A.W.D}$PEPTIDE1,PEPTIDE1,1:R3-9:R3$$$V2.0)"
1.28,< 0.4,"CC[C@H](C)[C@@H]1NC(=O)[C@H](CC(C)C)NC(=O)[C@H](Cc2ccccc2)NC(=O)[C@H](Cc2c[nH]c3ccccc23)NC(=O)CCCCCNC(=O)C[C@@H](C(=O)O)NC(=O)[C@H](Cc2c[nH]c3ccccc23)NC(=O)[C@H](C)NC(=O)[C@H](CS)NC1=O [compound 245] (HELM PEPTIDE1{[O=C(CCCCCN[*:1])[*:2]].W.F.L.I.C.A.W.D}$PEPTIDE1,PEPTIDE1,1:R1-9:R3$$$V2.0)"
3,< 0.4,"CC[C@@H]1NC(=O)[C@H]([C@@H](C)CC)NC(=O)[C@H](CC(C)C)NC(=O)[C@H](Cc2ccccc2)NC(=O)[C@H](Cc2c[nH]c3ccccc23)NC(=O)CCCCCNC(=O)C[C@@H](C(=O)O)NC(=O)[C@H](Cc2c[nH]c3ccccc23)NC(=O)[C@H](C)NC1=O [compound 246] (HELM PEPTIDE1{[O=C(CCCCCN[*:1])[*:2]].W.F.L.I.[Abu].A.W.D}$PEPTIDE1,PEPTIDE1,1:R1-9:R3$$$V2.0)"
2.34,< 0.4,"CC[C@H](C)[C@@H]1NC(=O)[C@H](CC(C)C)NC(=O)[C@H](Cc2ccccc2)NC(=O)[C@H](Cc2c[nH]c3ccccc23)NC(=O)[C@@H](N)CCCCNC(=O)CCCNC(=O)C[C@@H](C(=O)O)NC(=O)[C@H](Cc2c[nH]c3ccccc23)NC(=O)[C@H](C)NC(=O)[C@H](CS)NC1=O [compound 247] (HELM PEPTIDE1{K.W.F.L.I.C.A.W.[O=C(O)[C@H](CC(=O)[*:2])N[*:1]].[O=C(CCCN[*:1])[*:2]]}$PEPTIDE1,PEPTIDE1,1:R3-10:R2$$$V2.0)"
–,> 30,"CC[C@H](C)[C@@H]1NC(=O)[C@H](CC(C)C)NC(=O)[C@H](Cc2ccccc2)NC(=O)[C@H](Cc2c[nH]c3ccccc23)NC(=O)[C@@H](N)CCCCNC(=O)CCCCNC(=O)C[C@@H](C(=O)O)NC(=O)[C@H](Cc2c[nH]c3ccccc23)NC(=O)[C@H](C)NC(=O)[C@H](CS)NC1=O [compound 248] (HELM PEPTIDE1{K.W.F.L.I.C.A.W.[O=C(O)[C@H](CC(=O)[*:2])N[*:1]].[O=C(CCCCN[*:1])[*:2]]}$PEPTIDE1,PEPTIDE1,1:R3-10:R2$$$V2.0)"
